This is an account of results in patent US11992012B2, “Diaminotriazine compounds” (BASF SE, priority 2018, dated 2024).

Format in all cases: in vivo
For experiment [1], the system named is Alopercurus myosuroides. Nature of the experiment: greenhouse pre-emergence herbicidal test. To be noted: 250 g/ha, scale 0 to 100. In short, it runs like this: (§1)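 Seeds sown in loamy sand (~3.0% humus); compounds suspended or emulsified in water, sprayed directly after sowing, pots covered until rooting. Kept at 10-25° C. or 20-35° C. by species for 2 to 4 weeks. Damage scored visually 0-100 (100 = no emergence or complete aerial destruction).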

The subject of experiment [2] is Abutilon theophrasti. Put plainly: greenhouse pre-emergence herbicidal test. To be noted: 250 g/ha, scale 0 to 100. In short, it runs like this:
(§2)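 Compounds suspended or emulsified in water were sprayed onto loamy sand (about 3.0% humus) right after sowing; pots were hooded until rooting. Damage was scored on a 0–100 scale (100 = no emergence or complete aerial destruction, 0 = normal growth) after 2 to 4 weeks.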

The subject of experiment [3] is Setaria faberi. Nature of the experiment: greenhouse pre-emergence herbicidal test. To be noted: 250 g/ha, scale 0 to 100. In short, it runs like this:
as §2

Experiment [4] concerns Echinocloa crus-galli. Nature of the experiment: greenhouse pre-emergence herbicidal test. To be noted: 250 g/ha, scale 0 to 100. In short, it runs like this: as §1
Experiment [5] relates to Lolium multiflorum. Put plainly: greenhouse pre-emergence herbicidal test. Conditions: 250 g/ha, scale 0 to 100. The method in brief: as §1
The subject of experiment [6] is Apera spica-venti. Nature of the experiment: greenhouse pre-emergence herbicidal test. Conditions: 250 g/ha, scale 0 to 100. In short, it runs like this: as §1
The test system of experiment [7] is Abutilon theophrasti. Nature of the experiment: greenhouse post-emergence herbicidal test. To be noted: scale 0 to 100. From the text: (§3) The culture containers used were plastic flowerpots containing loamy sand with approximately 3.0% of humus as the substrate. The seeds of the test plants were sown separately for each species.
(§4) For the post-emergence treatment, the test plants were first grown to a height of 3 to 15 cm, depending on the plant habit, and only then treated with the active ingredients which had been suspended or emulsified in water. For this purpose, the test plants were either sown directly and grown in the same containers, or they were first grown separately as seedlings and transplanted into the test containers a few days prior to treatment.
(§5) Depending on the species, the plants were kept at 10-25° C. or 20-35° C., respectively.
(§6) The test period extended over 2 to 4 weeks. During this time, the plants were tended, and their response to the individual treatments was evaluated.
(§7) Evaluation was carried out using a scale from 0 to 100. 100 means no emergence of the plants, or complete destruction of at least the aerial moieties, and 0 means no damage, or normal course of growth. A moderate herbicidal activity is given at values of at least 60, a good herbicidal activity is given at values of at least 70, and a very good herbicidal activity is given at values of at least 85.

Experiment [8] relates to Amaranthus retroflexus. Nature of the experiment: greenhouse post-emergence herbicidal test. To be noted: 250 g/ha, scale 0 to 100.
From the text: as §3, §4, §5, §6, §7

The test system of experiment [9] is Echinocloa crus-galli. Put plainly: greenhouse post-emergence herbicidal test. To be noted: 125 g/ha, scale 0 to 100.
From the text: as §3, §4, §5, §6, §7

Experiment [10] concerns Setaria viridis. Put plainly: greenhouse post-emergence herbicidal test. Conditions: 125 g/ha, scale 0 to 100.
From the text: as §3, §4, §5, §6, §7

For experiment [11], the system named is Amaranthus retroflexus. Put plainly: greenhouse pre-emergence herbicidal test. Conditions: 250 g/ha, scale 0 to 100. In short, it runs like this: as §1

`CC(C)(F)c1nc(N)nc(Nc2c(F)ccc(F)c2OCc2c(F)cccc2F)n1` [Example 167]: the herbicidal activity in experiment [1], in [2] and in [3] was 100% in each case.

In the case of `CC(C)(F)c1nc(N)nc(Nc2c(F)c(F)cc(F)c2OCc2cccc(F)c2)n1` [Example 204], the herbicidal activity in experiment [1], in experiment [4], in [2] and in [3] was 100% throughout.

Turning to `CC(C)(F)c1nc(N)nc(Nc2c(F)c(F)cc(F)c2OCc2ccccc2Cl)n1` [Example 206], the herbicidal activity in experiment [1], in [4], in [2] and in experiment [3] was 100% in each case.

With `Cc1ccc(COc2cccc(F)c2Nc2nc(N)nc(C(C)(C)F)n2)cc1F` [Example 56], the herbicidal activity in [4] was 95%; in [5], 100%.

For the molecule `CCc1ccc(COc2c(F)cc(F)c(F)c2Nc2nc(N)nc(C(C)(C)F)n2)cc1` [Example 216], the herbicidal activity in experiment [1] is 98%; in experiment [2], 100%; in experiment [3] it was 100%.

For the molecule `Cc1cscc1COc1cccc(F)c1Nc1nc(N)nc(C(C)(C)F)n1` [Example 111], the herbicidal activity was determined as 80% in [6], 85% in experiment [4], 100% in experiment [7] (250 g/ha) and 100% in experiment [8].

Turning to `CC(C)(F)c1nc(N)nc(Nc2c(F)cccc2OCc2cc(Cl)sc2Cl)n1` [Example 112], the herbicidal activity in [6] was found to be 80%; in experiment [4], 80%; in experiment [7] (250 g/ha) it was 100%; in [8], 100%.

Take `CC(C)(F)c1nc(N)nc(Nc2c(F)cccc2OCc2cccc(OCC(F)(F)F)c2)n1` [Example 134]: the herbicidal activity in experiment [6] was determined as 95%; in experiment [4] it was 90%; in experiment [3], 90%.

In the case of `CC(C)(F)c1nc(N)nc(Nc2c(Cl)cccc2OCc2ccccc2)n1` [Example 85], the figures for the herbicidal activity in [1], in [2] and in experiment [3] were 70%, 90% and 70%, respectively.

Take `Nc1nc(Nc2c(F)c(F)cc(F)c2OCc2ccccc2)nc(C2(F)CCCC2)n1` [Example 199]: the herbicidal activity in experiment [1], in [4] and in experiment [2] was 100% each time.

In the case of `Cc1ccc(COc2c(F)cc(F)c(F)c2Nc2nc(N)nc(C(C)F)n2)cc1` (centres unmarked) [Example 231], the herbicidal activity in experiment [1], in experiment [4] and in [2] was 98% in each case.

As for `CC(C)(F)c1nc(N)nc(Nc2c(F)c(F)cc(F)c2OCc2c(F)cccc2F)n1` [Example 165], the herbicidal activity in experiment [1], in experiment [4] and in experiment [2] was 100% each time.

`CC(C)(F)c1nc(N)nc(Nc2c(F)cccc2OCc2ccccc2[N+](=O)[O-])n1` [Example 28]: the values for the herbicidal activity in experiment [7] (125 g/ha), in [9] and in experiment [10] were 75%, 85% and 75%, respectively.

As for `CC(C)(F)c1nc(N)nc(Nc2c(F)cccc2OCc2ccsc2C#N)n1` [Example 121], the herbicidal activity in experiment [11] stood at 80%; in experiment [7] (250 g/ha), 100%; in experiment [8] it was 100%.

Turning to `COC(C)(C)c1nc(N)nc(Nc2c(F)c(F)cc(F)c2OCc2ccccc2C)n1` [Example 226], the herbicidal activity is reported as 100% in experiment [1], 100% in [4] and 90% in experiment [2].

With `COc1ccccc1COc1c(F)cc(F)c(F)c1Nc1nc(N)nc(C(C)(C)OC)n1` [Example 214], the herbicidal activity is recorded as 98% in experiment [1], 100% in experiment [2] and 90% in experiment [3].

Regarding `COC(C)(C)c1nc(N)nc(Nc2c(F)c(F)cc(F)c2OCc2ccc(C)cc2)n1` [Example 228], the figures for the herbicidal activity in experiment [1], in [4] and in experiment [2] were 100%, 90% and 100%, respectively.

With `CC(C)(F)c1nc(N)nc(Nc2c(F)cccc2OCc2cccc(OC(F)(F)F)c2)n1` [Example 136], the herbicidal activity in [6] stood at 80%; in experiment [4], 85%; in [3], 80%.

Turning to `Cc1cc(COc2cccc(F)c2Nc2nc(N)nc(C(C)(C)F)n2)c(C)s1` [Example 125], the herbicidal activity is 85% in [6] and 100% in [4].
